# Test results published in PubChem BioAssay AID328 (DTP/NCI, 2004).
# Several values for one entry are separate records, joined by “and”; a condition that tells them apart may be missing. Identical values can stand only once. Inconclusive results and toxic doses are left out.
# Tested on: BDF1 mice, P388 leukemia ip, median survival T/C
# Test: NCI In Vivo Anticancer Drug Screen. Data for tumor model P388 Leukemia (intraperitoneal) in B6D2F1 (BDF1) mice
# Settings: endpoint: median survival time, higher = longer survival
# Outline: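 Read-out is survival of treated animals expressed relative to the vehicle group, as a T/C ratio.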
# [1] = dose: 50.0 mg/kg/injection, schedule: Q04DX003 (ip), vehicle: saline with Tween-80
# [2] = dose: 50.0 mg/kg/injection, schedule: Q01DX009 (ip), vehicle: saline with Tween-80
# [3] = dose: 100.0 mg/kg/injection, schedule: Q01DX009 (ip), vehicle: saline with Tween-80
# [4] = dose: 100.0 mg/kg/injection, schedule: Q04DX003 (ip), vehicle: saline with Tween-80
# [5] = dose: 200.0 mg/kg/injection, schedule: Q01DX009 (ip), vehicle: saline with Tween-80
# [6] = dose: 200.0 mg/kg/injection, schedule: Q04DX003 (ip), vehicle: saline with Tween-80
# [7] = dose: 100.0 mg/kg/injection, schedule: Q01DX005 (ip), vehicle: saline with Tween-80
# [8] = dose: 6.25 mg/kg/injection, schedule: Q01DX009 (ip), vehicle: saline
# [9] = dose: 12.5 mg/kg/injection, schedule: Q01DX009 (ip), vehicle: saline
# [10] = dose: 25.0 mg/kg/injection, schedule: Q01DX009 (ip), vehicle: saline
smiles,measurement,setting,value
COc1cc(C=Nc2cc(Br)cc(Br)c2)ccc1N(CCCl)CCCl,T/C,"dose: 18.75 mg/kg/injection, schedule: Q04DX003 (ip), vehicle: other",204 % of control
same,T/C,"dose: 22.0 mg/kg/injection, schedule: Q04DX003 (ip), vehicle: saline with Tween-80",200 % of control
same,T/C,"dose: 33.0 mg/kg/injection, schedule: Q04DX003 (ip), vehicle: saline with Tween-80",222 % of control
same,T/C,"dose: 37.5 mg/kg/injection, schedule: Q04DX003 (ip), vehicle: other",250 % of control
same,T/C,[1],218 % of control
same,T/C,"dose: 60.0 mg/kg/injection, schedule: Q04DX003 (ip), vehicle: saline with Tween-80",272 % of control
same,T/C,"dose: 75.0 mg/kg/injection, schedule: Q04DX003 (ip), vehicle: other",250 % of control
same,T/C,"dose: 100.0 mg/kg/injection, schedule: Q04DX003 (ip), vehicle: saline sonified",154 % of control
same,T/C,"dose: 200.0 mg/kg/injection, schedule: Q04DX003 (ip), vehicle: saline sonified",263 % of control
same,T/C,"dose: 400.0 mg/kg/injection, schedule: Q04DX003 (ip), vehicle: saline sonified",118 % of control
CC(C)N(C)Cc1ccccc1Sc1ccccc1CN(C)C(C)C,T/C,"dose: 100.0 mg/kg/injection, schedule: Q01DX001 (ip), vehicle: other",108 % of control
same,T/C,"dose: 200.0 mg/kg/injection, schedule: Q01DX001 (ip), vehicle: other",107 % of control
same,T/C,"dose: 400.0 mg/kg/injection, schedule: Q01DX001 (ip), vehicle: other",97 % of control
NC(=O)c1ncn[nH]1,T/C,[2],95 % of control
same,T/C,[1],104 % of control
same,T/C,[3],87 % of control
same,T/C,[4],100 % of control
same,T/C,[5],104 % of control
same,T/C,[6],100 % of control
COC(=O)c1cc(=O)nc(NN=C2CCCCC2)s1,T/C,"dose: 50.0 mg/kg/injection, schedule: Q01DX005 (ip), vehicle: saline with Tween-80",99 % of control
same,T/C,[7],103 % of control
C[C@@H]1C[C@H]2C(=CC1=O)CC[C@@H]1[C@@H]2CC[C@]2(C)[C@@H](O)CC[C@@H]12,T/C,[3],100 % of control
same,T/C,[5],109 % of control
same,T/C,"dose: 400.0 mg/kg/injection, schedule: Q01DX009 (ip), vehicle: saline with Tween-80",109 % of control
CCCC/C(C=O)=C\NC(=O)Nc1ccccc1,T/C,"dose: 50.0 mg/kg/injection, schedule: Q04DX002 (ip), vehicle: saline with Tween-80",100 % of control
same,T/C,"dose: 100.0 mg/kg/injection, schedule: Q04DX002 (ip), vehicle: saline with Tween-80",90 % of control
same,T/C,"dose: 200.0 mg/kg/injection, schedule: Q04DX002 (ip), vehicle: saline with Tween-80",98 % of control
O=C1C=C(Nc2ccc(O)cc2)c2ccccc2C1=O,T/C,[8],95 % of control
same,T/C,[9],104 % of control
same,T/C,[10],100 % of control
O=C(C[n+]1ccccc1)N/N=C/c1ccc(O)c(O)c1,T/C,[3],100 % of control
same,T/C,[4],95 % of control
same,T/C,[5],104 % of control
same,T/C,[6],86 % of control
C=C(C)C(=O)NCCCCCC(=O)Oc1ccc([N+](=O)[O-])cc1,T/C,"dose: 12.5 mg/kg/injection, schedule: Q01DX009 (ip), vehicle: saline with Tween-80",95 % of control
same,T/C,"dose: 25.0 mg/kg/injection, schedule: Q01DX009 (ip), vehicle: saline with Tween-80",116 % of control
same,T/C,[2],86 % of control and 106 % of control
same,T/C,[5],86 % of control
Cc1c2c(O)c(O)c(O)cc2c[n+]2ccccc12,T/C,[8],100 % of control
same,T/C,[9],106 % of control
same,T/C,[10],123 % of control
CCCCCCCCSC(=S)SCC(=O)O,T/C,[2],100 % of control
same,T/C,[3],100 % of control
O=C1C(CO)=C[C@@H](O)[C@H]2O[C@@H]12,T/C,"dose: 0.75 mg/kg/injection, schedule: Q01DX010 (ip), vehicle: saline",95 % of control
same,T/C,"dose: 1.5 mg/kg/injection, schedule: Q01DX010 (ip), vehicle: saline",110 % of control
same,T/C,"dose: 3.0 mg/kg/injection, schedule: Q01DX010 (ip), vehicle: saline",95 % of control and 120 % of control
same,T/C,"dose: 6.0 mg/kg/injection, schedule: Q01DX010 (ip), vehicle: saline",95 % of control
same,T/C,"dose: 6.2 mg/kg/injection, schedule: Q01DX001 (ip), vehicle: saline",155 % of control
same,T/C,"dose: 12.0 mg/kg/injection, schedule: Q01DX010 (ip), vehicle: saline",100 % of control
same,T/C,"dose: 12.5 mg/kg/injection, schedule: Q01DX001 (ip), vehicle: saline",160 % of control
same,T/C,"dose: 24.0 mg/kg/injection, schedule: Q01DX010 (ip), vehicle: saline",114 % of control and 115 % of control
same,T/C,"dose: 25.0 mg/kg/injection, schedule: Q01DX001 (ip), vehicle: saline",150 % of control
same,T/C,"dose: 50.0 mg/kg/injection, schedule: Q01DX010 (ip), vehicle: saline",110 % of control
same,T/C,"dose: 96.0 mg/kg/injection, schedule: Q01DX010 (ip), vehicle: saline",160 % of control and 161 % of control
same,T/C,"dose: 192.0 mg/kg/injection, schedule: Q01DX010 (ip), vehicle: saline",160 % of control
same,T/C,"dose: 384.0 mg/kg/injection, schedule: Q01DX010 (ip), vehicle: saline",175 % of control
O=C1c2ccccc2C(=O)N1CNc1ncccn1,T/C,"dose: 6.25 mg/kg/injection, schedule: Q01DX005 (ip), vehicle: saline with Tween-80",95 % of control
same,T/C,"dose: 12.5 mg/kg/injection, schedule: Q01DX005 (ip), vehicle: saline with Tween-80",98 % of control
same,T/C,"dose: 25.0 mg/kg/injection, schedule: Q01DX005 (ip), vehicle: saline with Tween-80",90 % of control
same,T/C,[7],108 % of control
same,T/C,"dose: 200.0 mg/kg/injection, schedule: Q01DX005 (ip), vehicle: saline with Tween-80",105 % of control
COC(=O)C1C2CCC3C2C(C)(C)CCCC31C (centres undefined),T/C,"dose: 25.0 mg/kg/injection, schedule: Q04DX003 (ip), vehicle: saline with Tween-80",100 % of control
same,T/C,[1],95 % of control
same,T/C,[4],104 % of control
same,T/C,[6],118 % of control
C=COCC(C)C (tested in a mixture with another compound),T/C,"dose: 0.19 mg/kg/injection, schedule: Q01DX009 (ip), vehicle: Klucel (hydroxypropylcellulose) (HPC)",105 % of control
same,T/C,"dose: 0.39 mg/kg/injection, schedule: Q01DX009 (ip), vehicle: Klucel (hydroxypropylcellulose) (HPC)",120 % of control
same,T/C,"dose: 0.78 mg/kg/injection, schedule: Q01DX009 (ip), vehicle: Klucel (hydroxypropylcellulose) (HPC)",120 % of control
same,T/C,"dose: 0.78 mg/kg/injection, schedule: Q04DX003 (ip), vehicle: saline",104 % of control
same,T/C,"dose: 1.56 mg/kg/injection, schedule: Q01DX009 (ip), vehicle: Klucel (hydroxypropylcellulose) (HPC)",100 % of control
same,T/C,"dose: 1.56 mg/kg/injection, schedule: Q04DX003 (ip), vehicle: Klucel (hydroxypropylcellulose) (HPC)",109 % of control
same,T/C,"dose: 1.56 mg/kg/injection, schedule: Q04DX003 (ip), vehicle: saline",95 % of control
same,T/C,"dose: 3.12 mg/kg/injection, schedule: Q04DX003 (ip), vehicle: Klucel (hydroxypropylcellulose) (HPC)",104 % of control
same,T/C,"dose: 3.12 mg/kg/injection, schedule: Q04DX003 (ip), vehicle: saline",104 % of control
same,T/C,"dose: 4.6 mg/kg/injection, schedule: Q04DX003 (ip), vehicle: saline",104 % of control
same,T/C,"dose: 6.25 mg/kg/injection, schedule: Q04DX003 (ip), vehicle: Klucel (hydroxypropylcellulose) (HPC)",113 % of control
same,T/C,"dose: 7.0 mg/kg/injection, schedule: Q04DX003 (ip), vehicle: saline",109 % of control
same,T/C,"dose: 7.5 mg/kg/injection, schedule: Q01DX001 (ip), vehicle: alcohol",91 % of control
same,T/C,"dose: 8.75 mg/kg/injection, schedule: Q01DX009 (ip), vehicle: saline with Tween-80",110 % of control
same,T/C,"dose: 10.0 mg/kg/injection, schedule: Q04DX003 (ip), vehicle: saline",104 % of control
same,T/C,"dose: 15.0 mg/kg/injection, schedule: Q01DX001 (ip), vehicle: alcohol",104 % of control
same,T/C,"dose: 17.5 mg/kg/injection, schedule: Q01DX009 (ip), vehicle: saline with Tween-80",95 % of control
same,T/C,"dose: 30.0 mg/kg/injection, schedule: Q01DX001 (ip), vehicle: alcohol",104 % of control
N#CC1=C(N)CCC2(C1)c1ccccc1-c1ccccc12,T/C,[2],103 % of control
same,T/C,[3],88 % of control
same,T/C,[5],96 % of control
COc1ccc(OC(=O)N2C=Cc3ccccc3C2C#N)cc1 (centres undefined),T/C,"dose: 50.0 mg/kg/injection, schedule: Q04DX003 (ip), vehicle: saline",95 % of control
same,T/C,"dose: 100.0 mg/kg/injection, schedule: Q04DX003 (ip), vehicle: saline",100 % of control
same,T/C,"dose: 200.0 mg/kg/injection, schedule: Q04DX003 (ip), vehicle: saline",112 % of control
